Experimental data published in patent US20240123079A1 (Seagen Inc., priority 2021, published 2024).
Like-named read-outs stand apart in the source and are kept apart here.

System: THP1-Dual™ reporter cells
Assay: THP1-Dual cell reporter assay (IRF-Lucia luciferase reporter)
Assay type: cell-based, human
Protocol: THP1-Dual™ Cell Reporter Assay
Potency of compounds and ADCs was evaluated using the THP1-Dual™ cells (InvivoGen PN: thpd-nfis [also referred to as THP1 dual reporter cells]), which contain an IRF-Lucia luciferase reporter. Cells were cultured in RPMI-1640 (Gibco) with 10% heat-inactivated fetal bovine serum, Pen-Strep (100 U/mL-100 μg/mL, Gibco), HEPES (10 mM, Gibco)), sodium pyruvate (1 mM, Gibco), MEM non-essential amino acids (1×, Gibco), GlutaMAX (1×, Gibco), and beta-mercaptoethanol (55 μM, Gibco). Cells were plated in a 96-well flat bottom tissue culture-treated clear polystyrene plate (Corning Costar #3596) at ˜100,000 cells per well in 200 μL with the indicated concentration of the compound or ADC. The supernatant was harvested at 24 hours (compounds) or 48 hours (ADC) post plating for the reporter assay, or as indicated. To measure Lucia reporter signal, 10 μL of the supernatant was combined with 40 μL of QUANTI-Luc™ Luminescence assay reagent (Invivogen PN: rep-qlc1) in a 96-well clear flat bottom tissue culture-treated black polystyrene plate (Corning Costar #3603) and read on a Perkin Elmer Envision plate reader.
STING agonist compounds were assessed for their ability to activate THP1-Dual™ reporter cells, a human monocytic cell line in which type I interferon (IRF) signaling can be monitored via a secreted luciferase reporter protein (Lucia). THP1-Dual™ cells were treated with increasing concentrations of the agonists for 24h, then supernatants were harvested and the Lucia reporter signal was quantified using QUANTI-Luc™ Luminescence assay reagent.

[1] = Homo sapiens, THP1-Dual, free compounds, 24 h, Lucia reporter signal, read-out: EC50
[2] = ADCs: drug linker conjugated to a targeted mAb, 48 h

EC50 [1] [nM] | SMILES | other results
> 10000 | CCn1nc(C)cc1C(=O)Nc1nc2cc(C(N)=O)cc(OC)c2n1C/C=C/Cn1c(NC(=O)c2cccnn2)nc2cc(C(N)=O)cc(OCCCNC)c21 [Compound 79] | 
> 10000 | CCn1nc(C)cc1C(=O)Nc1nc2cc(C(N)=O)cc(OC)c2n1C/C=C/Cn1c(NC(=O)c2ccnnc2)nc2cc(C(N)=O)cc(OCCCNC)c21 [Compound 80] | 
> 10000 | CCn1nc(C)cc1C(=O)Nc1nc2cc(C(N)=O)cc(OC)c2n1C/C=C/Cn1c(NC(=O)c2cc(C)on2)nc2cc(C(N)=O)cc(OCCCNC)c21 [Compound 81] | 
> 10000 | CCn1nc(C)cc1C(=O)Nc1nc2cc(C(N)=O)cc(OC)c2n1C/C=C/Cn1c(NC(=O)c2cc(C)no2)nc2cc(C(N)=O)cc(OCCCNC)c21 [Compound 82] | 
> 10000 | CCn1nc(C)cc1C(=O)Nc1nc2cc(C(N)=O)cc(OC)c2n1C/C=C/Cn1c(NC(=O)c2cc(C)ns2)nc2cc(C(N)=O)cc(OCCCNC)c21 [Compound 83] | 
> 10000 | CCn1nc(C)cc1C(=O)Nc1nc2cc(C(N)=O)cc(OC)c2n1C/C=C/Cn1c(NC(=O)c2ncccn2)nc2cc(C(N)=O)cc(OCCCNC)c21 [Compound 84] | 
> 10000 | CCn1cc(C(=O)Nc2nc3cc(C(N)=O)cc(OCCCNC)c3n2C/C=C/Cn2c(NC(=O)c3cc(C)nn3CC)nc3cc(C(N)=O)cc(OC)c32)c(C)n1 [Compound 85] | 
2460 | CCn1cc(C)nc1C(=O)Nc1nc2cc(C(N)=O)cc(OCCCNC)c2n1C/C=C/Cn1c(NC(=O)c2cc(C)nn2CC)nc2cc(C(N)=O)cc(OC)c21 [Compound 86] | 
> 10000 | CCc1cc(C(=O)Nc2nc3cc(C(N)=O)cc(OCCCNC)c3n2C/C=C/Cn2c(NC(=O)c3cc(C)nn3CC)nc3cc(C(N)=O)cc(OC)c32)n(C)n1 [Compound 87] | 
394 | CCn1nc(C)cc1C(=O)Nc1nc2cc(C(N)=O)cc(OC)c2n1C/C=C/Cn1c(NC(=O)c2cc(C)nn2C)nc2cc(C(N)=O)cc(OCCCNC)c21 [Compound 88] | 
1320 | CCc1oc(C)cc1C(=O)Nc1nc2cc(C(N)=O)cc(OCCCNC)c2n1C/C=C/Cn1c(NC(=O)c2cc(C)nn2CC)nc2cc(C(N)=O)cc(OC)c21 [Compound 89] | 
> 10000 | CCn1nc(C)cc1C(=O)Nc1nc2cc(C(N)=O)cc(OC)c2n1C/C=C/Cn1c(NC(=O)c2cc(C)sn2)nc2cc(C(N)=O)cc(OCCCNC)c21 [Compound 90] | 
350 | CCn1nc(C)cc1C(=O)Nc1nc2cc(C(N)=O)cc(OC)c2n1C/C=C/Cn1c(NC(=O)c2ccnn2CC)nc2cc(C(N)=O)cc(OCCCNC)c21 [Compound 91] | 
1190 | CCn1nc(C)cc1C(=O)Nc1nc2cc(C(N)=O)cc(OC)c2n1C/C=C/Cn1c(NC(=O)c2cc(C(F)(F)F)nn2CC)nc2cc(C(N)=O)cc(OCCCNC)c21 [Compound 92] | 
> 10000 | CCn1nc(C)cc1C(=O)Nc1nc2cc(C(N)=O)cc(OC)c2n1C/C=C/Cn1c(NC(=O)c2c(C)cnn2C)nc2cc(C(N)=O)cc(OCCCNC)c21 [Compound 93] | 
133 | CCc1nc(C)sc1C(=O)Nc1nc2cc(C(N)=O)cc(OCCCNC)c2n1C/C=C/Cn1c(NC(=O)c2cc(C)nn2CC)nc2cc(C(N)=O)cc(OC)c21 [Compound 94] | 
12.9 | CCc1nc(C)oc1C(=O)Nc1nc2cc(C(N)=O)cc(OCCCNC)c2n1C/C=C/Cn1c(NC(=O)c2cc(C)nn2CC)nc2cc(C(N)=O)cc(OC)c21 [Compound 95] | 

EC50 [1] [nM] | SMILES | other results
 | CCn1nc(C)cc1C(=O)Nc1nc2cc(C(N)=O)cc(OC)c2n1C/C=C/Cn1c(NC(=O)c2cccnn2)nc2cc(C(N)=O)cc(OCCCN(C)C(=O)CCN3C(=O)C=CC3=O)c21 [Compound 96] | EC50 (ng/mL) [2]: >10,000 ng/mL
 | CCn1nc(C)cc1C(=O)Nc1nc2cc(C(N)=O)cc(OC)c2n1C/C=C/Cn1c(NC(=O)c2ccnnc2)nc2cc(C(N)=O)cc(OCCCN(C)C(=O)CCN3C(=O)C=CC3=O)c21 [Compound 98] | EC50 (ng/mL) [2]: >10,000 ng/mL
 | CCn1nc(C)cc1C(=O)Nc1nc2cc(C(N)=O)cc(OC)c2n1C/C=C/Cn1c(NC(=O)c2ncccn2)nc2cc(C(N)=O)cc(OCCCN(C)C(=O)CCN3C(=O)C=CC3=O)c21 [Compound 101] | EC50 (ng/mL) [2]: >10,000 ng/mL
 | CCn1cc(C(=O)Nc2nc3cc(C(N)=O)cc(OCCCN(C)C(=O)CCN4C(=O)C=CC4=O)c3n2C/C=C/Cn2c(NC(=O)c3cc(C)nn3CC)nc3cc(C(N)=O)cc(OC)c32)c(C)n1 [Compound 102] | EC50 (ng/mL) [2]: >10,000 ng/mL
 | CCn1cc(C)nc1C(=O)Nc1nc2cc(C(N)=O)cc(OCCCN(C)C(=O)CCN3C(=O)C=CC3=O)c2n1C/C=C/Cn1c(NC(=O)c2cc(C)nn2CC)nc2cc(C(N)=O)cc(OC)c21 [Compound 103] | EC50 (ng/mL) [2]: >10,000 ng/mL
 | CCc1cc(C(=O)Nc2nc3cc(C(N)=O)cc(OCCCN(C)C(=O)CCN4C(=O)C=CC4=O)c3n2C/C=C/Cn2c(NC(=O)c3cc(C)nn3CC)nc3cc(C(N)=O)cc(OC)c32)n(C)n1 [Compound 104] | EC50 (ng/mL) [2]: >10,000 ng/mL
 | CCn1nc(C)cc1C(=O)Nc1nc2cc(C(N)=O)cc(OC)c2n1C/C=C/Cn1c(NC(=O)c2cc(C)nn2C)nc2cc(C(N)=O)cc(OCCCN(C)C(=O)CCN3C(=O)C=CC3=O)c21 [Compound 105] | EC50 [2]: 0.0525 µg/mL
 | CCc1oc(C)cc1C(=O)Nc1nc2cc(C(N)=O)cc(OCCCN(C)C(=O)CCN3C(=O)C=CC3=O)c2n1C/C=C/Cn1c(NC(=O)c2cc(C)nn2CC)nc2cc(C(N)=O)cc(OC)c21 [Compound 106] | EC50 (ng/mL) [2]: >10,000 ng/mL
 | CCn1nc(C)cc1C(=O)Nc1nc2cc(C(N)=O)cc(OC)c2n1C/C=C/Cn1c(NC(=O)c2cc(C)sn2)nc2cc(C(N)=O)cc(OCCCN(C)C(=O)CCN3C(=O)C=CC3=O)c21 [Compound 107] | EC50 (ng/mL) [2]: >10,000 ng/mL
 | CCn1nc(C)cc1C(=O)Nc1nc2cc(C(N)=O)cc(OC)c2n1C/C=C/Cn1c(NC(=O)c2ccnn2CC)nc2cc(C(N)=O)cc(OCCCN(C)C(=O)CCN3C(=O)C=CC3=O)c21 [Compound 108] | EC50 [2]: 0.0635 µg/mL
 | CCn1nc(C)cc1C(=O)Nc1nc2cc(C(N)=O)cc(OC)c2n1C/C=C/Cn1c(NC(=O)c2cc(C(F)(F)F)nn2CC)nc2cc(C(N)=O)cc(OCCCN(C)C(=O)CCN3C(=O)C=CC3=O)c21 [Compound 109] | EC50 (ng/mL) [2]: >10,000 ng/mL
 | CCn1nc(C)cc1C(=O)Nc1nc2cc(C(N)=O)cc(OC)c2n1C/C=C/Cn1c(NC(=O)c2c(C)cnn2C)nc2cc(C(N)=O)cc(OCCCN(C)C(=O)CCN3C(=O)C=CC3=O)c21 [Compound 110] | EC50 (ng/mL) [2]: >10,000 ng/mL
 | CCc1nc(C)sc1C(=O)Nc1nc2cc(C(N)=O)cc(OCCCN(C)C(=O)CCN3C(=O)C=CC3=O)c2n1C/C=C/Cn1c(NC(=O)c2cc(C)nn2CC)nc2cc(C(N)=O)cc(OC)c21 [Compound 111] | EC50 [2]: 0.0132 µg/mL
 | CCc1nc(C)oc1C(=O)Nc1nc2cc(C(N)=O)cc(OCCCN(C)C(=O)CCN3C(=O)C=CC3=O)c2n1C/C=C/Cn1c(NC(=O)c2cc(C)nn2CC)nc2cc(C(N)=O)cc(OC)c21 [Compound 112] | EC50 [2]: 0.002 µg/mL
9.4 | CCn1nc(C)cc1C(=O)Nc1nc2cc(C(N)=O)cc(OC)c2n1C/C=C/Cn1c(NC(=O)c2cc(C)nn2CC)nc2cc(C(N)=O)cc(OCCCN(C)C(=O)[C@@H](N)CC(C)C)c21 [Compound 114] | 
17.4 | CC[C@H](C)[C@H](N)C(=O)N(C)CCCOc1cc(C(N)=O)cc2nc(NC(=O)c3cc(C)nn3CC)n(C/C=C/Cn3c(NC(=O)c4cc(C)nn4CC)nc4cc(C(N)=O)cc(OC)c43)c12 [Compound 115] | 
11.6 | CCn1nc(C)cc1C(=O)Nc1nc2cc(C(N)=O)cc(OC)c2n1C/C=C/Cn1c(NC(=O)c2cc(C)nn2CC)nc2cc(C(N)=O)cc(OCCCN(C)C(=O)[C@@H](N)Cc3ccccc3)c21 [Compound 116] | 
